Experimental data: ChEMBL document CHEMBL1201862, “PubChem BioAssay data set” (2004)
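Where inhibition never reached the appropriate level, the endpoint shown equals the highest concentration tested. Otherwise, values were interpolated linearly from a five-concentration, 48-hour dose response in 96-well plates. At the GI50, growth is halved.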 Activity calls are given as the source filed them. Rule as the data show it: active = GI50 up to about 1.1 µM and inactive = higher.

What was measured:
Experiment in all cases: growth of human tumour cells (NCI), 48 h
NCI-H23 = system: NCI-H23
KM12 = system: KM12
HOP-62 = system: HOP-62
DU-145 = system: DU-145
786-0 = system: 786-0
SF-295 = system: SF-295
PC-3 = system: PC-3
HOP-92 = system: HOP-92
K562 = system: K562
MDA-MB-231 = system: MDA-MB-231
LOX IMVI = system: LOX IMVI
SNB-19 = system: SNB-19
SR = system: SR
U-251 = system: U-251
BT-549 = system: BT-549
OVCAR-4 = system: OVCAR-4
EKVX = system: EKVX
HCC 2998 = system: HCC 2998

Row | SMILES | GI50 (NCI-H23) | GI50 (KM12) | GI50 (HOP-62) | GI50 (DU-145) | GI50 (786-0) | GI50 (SF-295) | GI50 (PC-3) | GI50 (HOP-92) | GI50 (K562) | GI50 (MDA-MB-231) | GI50 (LOX IMVI) | GI50 (SNB-19) | GI50 (SR) | GI50 (U-251) | GI50 (BT-549) | GI50 (OVCAR-4) | GI50 (EKVX) | GI50 (HCC 2998)
1 | Cc1c/c(=N\c2ccc3c(c2)c(N)cc(C)[n+]3C)nc(N)n1C | > 100 µM (inactive) | > 100 µM (inactive) | 87.7 µM (inactive) | > 100 µM (inactive) | > 100 µM (inactive) | > 100 µM (inactive) | > 100 µM (inactive) | > 100 µM (inactive) | > 100 µM (inactive) | > 100 µM (inactive) | > 100 µM (inactive) | > 100 µM (inactive) | > 100 µM (inactive) | 88.3 µM (inactive) | > 100 µM (inactive) | > 100 µM (inactive) | > 100 µM (inactive) | 
2 | CN(Cc1c[n+]([O-])c2nc(N)nc(N)c2n1)c1ccc(C(=O)NC23CC4CC(CC(C4)C2)C3)cc1 | > 100 µM (inactive) | > 100 µM (inactive) | > 100 µM (inactive) | > 100 µM (inactive) | > 100 µM (inactive) | > 100 µM (inactive) | 89.7 µM (inactive) |  | 48.9 µM (inactive) | 98.9 µM (inactive) | > 100 µM (inactive) | 92.7 µM (inactive) | 28.8 µM (inactive) | 34.5 µM (inactive) | 28.2 µM (inactive) |  | > 100 µM (inactive) | 
3 | O=C(O)C(Cc1ccccc1-c1ccccc1)C(=O)O | > 100 µM (inactive) | > 100 µM (inactive) |  | > 100 µM (inactive) | > 100 µM (inactive) | 86.7 µM (inactive) | > 100 µM (inactive) | > 100 µM (inactive) | > 100 µM (inactive) | > 100 µM (inactive) | > 100 µM (inactive) | > 100 µM (inactive) | > 100 µM (inactive) | > 100 µM (inactive) | > 100 µM (inactive) | > 100 µM (inactive) | > 100 µM (inactive) | 
4 | COc1ccc(C(O)c2ccccn2)cc1 (configuration not stated) | > 100 µM (inactive) | > 100 µM (inactive) | > 100 µM (inactive) | > 100 µM (inactive) | > 100 µM (inactive) | > 100 µM (inactive) | > 100 µM (inactive) | > 100 µM (inactive) | > 100 µM (inactive) | > 100 µM (inactive) | > 100 µM (inactive) | > 100 µM (inactive) | > 100 µM (inactive) | > 100 µM (inactive) | > 100 µM (inactive) | > 100 µM (inactive) | > 100 µM (inactive) | 
5 | C=C(C)COC(=O)COCC(=O)OCC(=C)C | > 100 µM (inactive) | > 100 µM (inactive) | > 100 µM (inactive) | > 100 µM (inactive) | > 100 µM (inactive) | > 100 µM (inactive) | 95.3 µM (inactive) | > 100 µM (inactive) | > 100 µM (inactive) | > 100 µM (inactive) |  | > 100 µM (inactive) | > 100 µM (inactive) | > 100 µM (inactive) | > 100 µM (inactive) | > 100 µM (inactive) | > 100 µM (inactive) | > 100 µM (inactive)
6 | O=C(O)Cn1cnc2c(O)nc(Nc3ccccc3)nc21 | > 100 µM (inactive) | > 100 µM (inactive) | > 100 µM (inactive) | > 100 µM (inactive) | > 100 µM (inactive) | > 100 µM (inactive) | > 100 µM (inactive) | > 100 µM (inactive) |  | > 100 µM (inactive) | > 100 µM (inactive) | > 100 µM (inactive) | > 100 µM (inactive) | > 100 µM (inactive) | > 100 µM (inactive) | > 100 µM (inactive) | > 100 µM (inactive) | > 100 µM (inactive)
7 | NNS(=O)(=O)c1cc(C(=O)O)cc(C(=O)O)c1 | > 100 µM (inactive) | > 100 µM (inactive) | > 100 µM (inactive) | > 100 µM (inactive) | > 100 µM (inactive) | > 100 µM (inactive) | > 100 µM (inactive) | > 100 µM (inactive) | > 100 µM (inactive) | > 100 µM (inactive) | > 100 µM (inactive) | > 100 µM (inactive) | > 100 µM (inactive) | > 100 µM (inactive) | > 100 µM (inactive) | > 100 µM (inactive) | > 100 µM (inactive) | 
8 | O=[N+]([O-])c1cccnc1-n1cnc2ccccc21 |  | > 100 µM (inactive) | > 100 µM (inactive) | > 100 µM (inactive) | > 100 µM (inactive) | > 100 µM (inactive) | > 100 µM (inactive) | > 100 µM (inactive) | > 100 µM (inactive) | > 100 µM (inactive) | > 100 µM (inactive) |  | > 100 µM (inactive) | > 100 µM (inactive) | > 100 µM (inactive) | > 100 µM (inactive) | > 100 µM (inactive) | > 100 µM (inactive)
9 | C1CSC2=C(S1)SC1=C(S2)SC(=C2SC3=C(SC4=C(SCCS4)S3)S2)S1 | > 100 µM (inactive) | > 100 µM (inactive) | > 100 µM (inactive) | > 100 µM (inactive) | > 100 µM (inactive) | > 100 µM (inactive) | > 100 µM (inactive) | > 100 µM (inactive) | > 100 µM (inactive) | > 100 µM (inactive) |  | > 100 µM (inactive) | 87.7 µM (inactive) | > 100 µM (inactive) | > 100 µM (inactive) | > 100 µM (inactive) | > 100 µM (inactive) | > 100 µM (inactive)
10 | Cc1ccc(S(=O)(=O)N2CC2CCCCC=O)cc1 (configuration not stated) | > 100 µM (inactive) | 63.1 µM (inactive) | > 100 µM (inactive) | > 100 µM (inactive) | 40.6 µM (inactive) | > 100 µM (inactive) | > 100 µM (inactive) | > 100 µM (inactive) | 32.6 µM (inactive) | > 100 µM (inactive) | 20.1 µM (inactive) | > 100 µM (inactive) | 17.1 µM (inactive) | 27.4 µM (inactive) | > 100 µM (inactive) | > 100 µM (inactive) | > 100 µM (inactive) | 
11 | NC(CSC(=O)c1ccccc1)C(=O)O (configuration not stated) | > 100 µM (inactive) | > 100 µM (inactive) | > 100 µM (inactive) | > 100 µM (inactive) | > 100 µM (inactive) | > 100 µM (inactive) | > 100 µM (inactive) | > 100 µM (inactive) |  | > 100 µM (inactive) | > 100 µM (inactive) | > 100 µM (inactive) | > 100 µM (inactive) | > 100 µM (inactive) | > 100 µM (inactive) | > 100 µM (inactive) | > 100 µM (inactive) | 
12 | C1CCN2CC3CCCN4CCCC(C2C1)C34 (configuration not stated) | > 100 µM (inactive) | > 100 µM (inactive) | > 100 µM (inactive) | > 100 µM (inactive) | > 100 µM (inactive) | > 100 µM (inactive) | > 100 µM (inactive) | > 100 µM (inactive) | > 100 µM (inactive) | > 100 µM (inactive) | > 100 µM (inactive) | > 100 µM (inactive) | > 100 µM (inactive) | > 100 µM (inactive) | > 100 µM (inactive) |  | > 100 µM (inactive) | > 100 µM (inactive)
13 | O=C(CSCC(=O)N/N=C\c1cccc(Br)c1)N/N=C\c1cccc(Br)c1 | 14.6 µM (inactive) | 15 µM (inactive) | 17.4 µM (inactive) | 21.8 µM (inactive) | 19.1 µM (inactive) | 14.9 µM (inactive) | 14.5 µM (inactive) | 18.9 µM (inactive) | 18.2 µM (inactive) | 12.7 µM (inactive) | 10.8 µM (inactive) | 46.5 µM (inactive) | 27.2 µM (inactive) | 15.1 µM (inactive) | 21.2 µM (inactive) | 20.1 µM (inactive) | 27.1 µM (inactive) | 
14 | CC(=O)O[C@H]1C[C@H](O[C@H]2[C@@H](O)C[C@H](O[C@H]3[C@@H](O)C[C@H](O[C@H]4CC[C@@]5(C)[C@H](CC[C@@H]6[C@@H]5CC[C@]5(O)[C@@H](C7=CC(=O)OC7)CC[C@]65O)C4)O[C@@H]3C)O[C@@H]2C)O[C@H](C)[C@H]1O[C@@H]1O[C@H](CO)[C@@H](O)[C@H](O)[C@H]1O | 0.137 µM (active) | 0.565 µM (active) | 0.0664 µM (active) | 0.243 µM (active) | 0.258 µM (active) | 0.344 µM (active) | 0.328 µM (active) | 0.792 µM (active) | 0.337 µM (active) | 2.35 µM (inactive) | 0.271 µM (active) | 0.771 µM (active) |  | 0.427 µM (active) | 0.304 µM (active) | 0.497 µM (active) | 0.233 µM (active) | 1.52 µM (inactive)
15 | c1ccc(CCCNc2nnnc3ccccc23)cc1 | 70.3 µM (inactive) | > 100 µM (inactive) | > 100 µM (inactive) | > 100 µM (inactive) | > 100 µM (inactive) | 44.2 µM (inactive) | > 100 µM (inactive) | > 100 µM (inactive) | 47.5 µM (inactive) | > 100 µM (inactive) | 99.5 µM (inactive) | > 100 µM (inactive) | 92.9 µM (inactive) | > 100 µM (inactive) | > 100 µM (inactive) | 38.9 µM (inactive) | 70.1 µM (inactive) | 
16 | CN(C)CCNCc1ccc2c(-c3ccccc3)nc3cc(Cl)c(Cl)cc3n12 | 14.6 µM (inactive) | 9.73 µM (inactive) | 7.33 µM (inactive) | 9.64 µM (inactive) | 5.96 µM (inactive) | 13.1 µM (inactive) | 10.9 µM (inactive) | 13.1 µM (inactive) | 8.32 µM (inactive) | 10.2 µM (inactive) | 7.48 µM (inactive) | 14 µM (inactive) |  | 9.08 µM (inactive) | 16.4 µM (inactive) | 11.3 µM (inactive) | 15.3 µM (inactive) | 2.33 µM (inactive)
